The source of these data is patent publication US11725012B2, “Imidazo[1,5-a]pyrazine derivatives as PI3K δ inhibitors” (priority 2016, dated 2023).

What all share (format): biochemical
The target in assay [1] is recombinant PI3K (p110δ/p85α) (Homo sapiens, UniProt O00329). Description: PI3Kδ ADP-Glo kinase assay. Particulars: read-out: PI3Kδ Enzyme activity IC50. The essentials: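 ADP-Glo luminescence with recombinant p110δ/p85α and lipid kinase substrate. Compound serial dilutions preincubated 0.5 hr, ATP added, reaction 1 hr at room temperature, then ATP depletion and detection steps. IC50 from a four-parameter logistic fit of residual activity.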
In general terms: ADP-Glo turns the ADP formed in a reaction into a luminescent signal.

In assay [2] the target is recombinant PI3K (p110α/p85α) (Homo sapiens, UniProt P42336). In words: PI3Kα ADP-Glo kinase assay. The conditions noted are these: for IC50: read-out: PI3Kα Enzyme activity IC50.
The target in a further assay is PI3K (p110β/p85α) (Homo sapiens, UniProt P42338). In words: PI3Kβ ADP-Glo kinase assay. Particulars: for IC50: read-out: PI3Kβ Enzyme activity IC50.
Another assay concerns the target PI3K (p110γ) (Homo sapiens, UniProt P48736). In words: PI3Kγ ADP-Glo kinase assay. The conditions noted are these: for IC50: read-out: PI3Kγ Enzyme activity IC50.

As usually defined, the IC50 is the concentration that inhibits the measured activity by half. A word on the inhibition: it is the relative decrease from the control value, in per cent.

A value given as a limit tells only on which side of the number the result lay.

Sequence of recombinant PI3K (p110α/p85α) (P42336 whole entry): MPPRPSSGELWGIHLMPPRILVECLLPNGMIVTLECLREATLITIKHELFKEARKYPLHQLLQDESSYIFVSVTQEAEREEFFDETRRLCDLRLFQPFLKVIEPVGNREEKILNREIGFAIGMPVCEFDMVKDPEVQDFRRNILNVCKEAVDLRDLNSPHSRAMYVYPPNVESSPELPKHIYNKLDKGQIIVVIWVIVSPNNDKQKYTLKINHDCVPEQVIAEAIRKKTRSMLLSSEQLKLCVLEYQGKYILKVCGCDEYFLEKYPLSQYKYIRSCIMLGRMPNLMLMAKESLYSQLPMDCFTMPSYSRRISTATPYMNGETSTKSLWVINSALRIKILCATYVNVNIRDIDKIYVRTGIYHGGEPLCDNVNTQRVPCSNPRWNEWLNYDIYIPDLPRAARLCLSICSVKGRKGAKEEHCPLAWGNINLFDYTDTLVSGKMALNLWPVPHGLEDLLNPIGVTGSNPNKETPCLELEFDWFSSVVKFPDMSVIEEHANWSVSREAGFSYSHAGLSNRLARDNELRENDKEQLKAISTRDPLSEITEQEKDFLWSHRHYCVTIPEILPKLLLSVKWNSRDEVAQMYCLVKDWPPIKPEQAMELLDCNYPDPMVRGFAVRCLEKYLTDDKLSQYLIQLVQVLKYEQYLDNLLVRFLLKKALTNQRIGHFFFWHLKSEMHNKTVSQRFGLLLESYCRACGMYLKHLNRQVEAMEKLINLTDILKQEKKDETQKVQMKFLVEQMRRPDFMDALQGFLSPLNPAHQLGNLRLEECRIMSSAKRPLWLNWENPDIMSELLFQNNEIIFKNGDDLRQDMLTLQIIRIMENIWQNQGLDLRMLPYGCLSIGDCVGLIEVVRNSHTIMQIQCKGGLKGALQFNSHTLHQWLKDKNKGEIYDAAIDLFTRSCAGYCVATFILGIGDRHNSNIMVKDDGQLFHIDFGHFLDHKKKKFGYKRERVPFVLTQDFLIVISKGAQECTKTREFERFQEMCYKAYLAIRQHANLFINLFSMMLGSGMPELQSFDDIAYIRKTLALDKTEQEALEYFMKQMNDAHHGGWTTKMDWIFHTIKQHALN
Sequence of recombinant PI3K (p110α/p85α) (P27986 whole entry partner): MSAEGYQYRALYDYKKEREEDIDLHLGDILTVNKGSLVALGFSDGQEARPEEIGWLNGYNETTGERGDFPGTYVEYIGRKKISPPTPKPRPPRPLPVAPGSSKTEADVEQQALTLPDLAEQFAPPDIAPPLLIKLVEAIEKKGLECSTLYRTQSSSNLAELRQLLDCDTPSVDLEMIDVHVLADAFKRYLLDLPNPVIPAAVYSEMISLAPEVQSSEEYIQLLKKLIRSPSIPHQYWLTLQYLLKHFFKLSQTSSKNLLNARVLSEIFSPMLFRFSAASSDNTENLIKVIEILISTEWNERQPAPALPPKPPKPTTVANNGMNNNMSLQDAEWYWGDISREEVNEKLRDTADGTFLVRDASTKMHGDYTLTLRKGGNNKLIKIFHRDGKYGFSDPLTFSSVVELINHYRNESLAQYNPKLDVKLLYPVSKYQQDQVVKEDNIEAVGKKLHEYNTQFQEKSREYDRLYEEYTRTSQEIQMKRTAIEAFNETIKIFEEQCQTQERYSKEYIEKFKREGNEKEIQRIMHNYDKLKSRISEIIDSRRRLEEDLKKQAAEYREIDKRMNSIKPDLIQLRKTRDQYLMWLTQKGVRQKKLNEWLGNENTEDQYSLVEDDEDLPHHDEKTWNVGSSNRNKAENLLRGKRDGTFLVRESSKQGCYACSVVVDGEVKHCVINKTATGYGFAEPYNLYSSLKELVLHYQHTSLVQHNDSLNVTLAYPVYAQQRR
Sequence of PI3K (p110γ) (P48736 whole entry): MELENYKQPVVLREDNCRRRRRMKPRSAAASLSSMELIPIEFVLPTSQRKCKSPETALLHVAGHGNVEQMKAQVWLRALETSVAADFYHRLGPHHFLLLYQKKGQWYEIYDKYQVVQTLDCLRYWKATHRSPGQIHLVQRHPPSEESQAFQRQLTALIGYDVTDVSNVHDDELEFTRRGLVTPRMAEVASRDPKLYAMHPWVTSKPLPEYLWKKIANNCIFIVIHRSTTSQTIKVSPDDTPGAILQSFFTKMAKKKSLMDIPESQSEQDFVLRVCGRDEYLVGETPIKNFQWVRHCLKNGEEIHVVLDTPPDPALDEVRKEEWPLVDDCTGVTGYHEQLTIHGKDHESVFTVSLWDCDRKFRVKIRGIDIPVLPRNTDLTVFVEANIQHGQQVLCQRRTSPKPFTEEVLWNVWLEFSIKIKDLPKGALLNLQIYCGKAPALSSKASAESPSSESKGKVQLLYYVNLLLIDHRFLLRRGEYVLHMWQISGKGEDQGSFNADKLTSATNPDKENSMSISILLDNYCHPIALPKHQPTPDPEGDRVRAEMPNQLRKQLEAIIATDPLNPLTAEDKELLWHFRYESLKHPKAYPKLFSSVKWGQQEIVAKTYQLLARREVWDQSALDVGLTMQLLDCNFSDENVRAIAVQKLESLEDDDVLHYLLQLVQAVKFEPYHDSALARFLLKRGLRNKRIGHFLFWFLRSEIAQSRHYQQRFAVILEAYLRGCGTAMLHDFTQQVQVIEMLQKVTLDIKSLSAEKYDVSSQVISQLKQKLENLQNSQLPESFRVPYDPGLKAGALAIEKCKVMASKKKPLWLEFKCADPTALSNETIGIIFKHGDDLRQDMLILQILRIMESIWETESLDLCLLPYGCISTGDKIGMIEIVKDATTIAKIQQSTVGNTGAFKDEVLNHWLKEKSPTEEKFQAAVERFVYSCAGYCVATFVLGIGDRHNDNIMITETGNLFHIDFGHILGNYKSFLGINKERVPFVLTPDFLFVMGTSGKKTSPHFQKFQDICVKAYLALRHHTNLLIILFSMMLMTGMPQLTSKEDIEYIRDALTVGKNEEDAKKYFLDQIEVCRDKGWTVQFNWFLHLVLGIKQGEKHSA
Sequence of recombinant PI3K (p110δ/p85α) (O00329 whole entry): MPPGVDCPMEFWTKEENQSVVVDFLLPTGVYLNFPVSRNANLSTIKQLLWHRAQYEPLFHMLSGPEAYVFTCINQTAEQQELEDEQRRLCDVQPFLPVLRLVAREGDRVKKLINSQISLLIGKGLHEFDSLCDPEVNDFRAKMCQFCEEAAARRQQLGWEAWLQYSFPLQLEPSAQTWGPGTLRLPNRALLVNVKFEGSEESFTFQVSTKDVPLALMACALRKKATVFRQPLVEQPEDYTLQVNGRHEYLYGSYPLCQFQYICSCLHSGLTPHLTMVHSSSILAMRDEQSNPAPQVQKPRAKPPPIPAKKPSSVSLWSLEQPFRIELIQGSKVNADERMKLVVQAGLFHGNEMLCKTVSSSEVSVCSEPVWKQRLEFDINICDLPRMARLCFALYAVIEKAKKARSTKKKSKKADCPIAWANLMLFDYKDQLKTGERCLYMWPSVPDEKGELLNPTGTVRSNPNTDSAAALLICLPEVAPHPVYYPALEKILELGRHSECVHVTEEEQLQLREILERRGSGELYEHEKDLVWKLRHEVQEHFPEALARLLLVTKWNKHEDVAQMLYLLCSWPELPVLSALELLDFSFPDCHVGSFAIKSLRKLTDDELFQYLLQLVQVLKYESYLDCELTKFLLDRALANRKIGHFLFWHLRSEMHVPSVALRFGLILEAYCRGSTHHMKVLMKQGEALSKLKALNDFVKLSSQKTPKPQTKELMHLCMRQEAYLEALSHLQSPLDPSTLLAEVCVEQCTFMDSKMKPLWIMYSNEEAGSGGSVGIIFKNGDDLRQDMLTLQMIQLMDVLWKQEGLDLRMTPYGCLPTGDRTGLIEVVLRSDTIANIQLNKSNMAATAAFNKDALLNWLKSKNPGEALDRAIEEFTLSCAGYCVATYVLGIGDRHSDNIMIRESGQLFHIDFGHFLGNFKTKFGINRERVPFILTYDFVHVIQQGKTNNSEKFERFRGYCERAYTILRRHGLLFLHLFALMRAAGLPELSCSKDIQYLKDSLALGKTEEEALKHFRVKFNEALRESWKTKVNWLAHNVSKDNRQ
Sequence of recombinant PI3K (p110δ/p85α) (P27986 whole entry partner): as the sequence (P27986 whole entry partner) above
Sequence of PI3K (p110β/p85α) (P42338 whole entry): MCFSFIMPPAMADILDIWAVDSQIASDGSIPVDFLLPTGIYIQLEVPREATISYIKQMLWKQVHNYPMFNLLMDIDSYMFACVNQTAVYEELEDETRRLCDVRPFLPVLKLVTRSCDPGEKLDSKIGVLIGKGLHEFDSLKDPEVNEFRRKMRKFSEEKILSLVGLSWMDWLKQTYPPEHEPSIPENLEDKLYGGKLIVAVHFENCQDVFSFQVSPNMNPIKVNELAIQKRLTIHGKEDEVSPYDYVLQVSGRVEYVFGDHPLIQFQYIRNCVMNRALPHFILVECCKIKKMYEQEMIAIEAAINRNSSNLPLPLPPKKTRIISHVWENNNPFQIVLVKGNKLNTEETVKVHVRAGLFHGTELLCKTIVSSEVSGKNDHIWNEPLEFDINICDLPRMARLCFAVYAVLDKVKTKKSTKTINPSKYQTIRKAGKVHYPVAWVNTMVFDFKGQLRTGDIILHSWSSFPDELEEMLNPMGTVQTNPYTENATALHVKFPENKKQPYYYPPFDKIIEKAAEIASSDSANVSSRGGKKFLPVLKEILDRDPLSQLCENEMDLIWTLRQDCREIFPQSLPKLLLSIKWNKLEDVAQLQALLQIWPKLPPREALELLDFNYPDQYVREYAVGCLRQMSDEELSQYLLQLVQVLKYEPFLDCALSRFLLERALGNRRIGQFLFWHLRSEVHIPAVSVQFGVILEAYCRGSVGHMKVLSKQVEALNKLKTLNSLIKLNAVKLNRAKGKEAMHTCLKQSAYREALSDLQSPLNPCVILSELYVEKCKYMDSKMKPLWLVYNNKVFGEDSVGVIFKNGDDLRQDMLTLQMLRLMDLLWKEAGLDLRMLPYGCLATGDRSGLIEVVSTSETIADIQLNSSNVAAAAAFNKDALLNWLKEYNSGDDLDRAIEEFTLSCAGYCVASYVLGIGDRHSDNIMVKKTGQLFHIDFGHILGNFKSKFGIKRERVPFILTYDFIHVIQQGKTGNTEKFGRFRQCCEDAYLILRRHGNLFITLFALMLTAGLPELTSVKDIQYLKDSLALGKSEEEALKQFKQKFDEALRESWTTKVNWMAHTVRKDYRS
Sequence of PI3K (p110β/p85α) (P27986 whole entry partner): as the sequence (P27986 whole entry partner) above

As for `CCOc1c(C(C)c2nc(Cl)c3c(N)nccn23)cc(Cl)c(C)c1-c1ccc(OCCOC)nc1` (stereo not shown) [Compound 31, 1-chloro-3-(1-(5-chloro-2-ethoxy-3-(6-(2-methoxyethoxy)pyridin-3-yl)-4-methylphenyl)ethyl)imidazo[1,5-a]pyrazin-8-amine], the 50% inhibitory concentration (IC50) in assay [1] worked out at 0.0025 µM; in assay [2], 2.2 µM; on PI3K (p110β/p85α) it was 0.62 µM; on PI3K (p110γ), 0.43 µM.
The like results for `CC(C)Oc1c(C(C)c2nc(Cl)c3c(N)nccn23)cc(Cl)c(F)c1-c1ccc(C(F)(F)F)nc1` (stereo not shown) [Compound 40, 1-chloro-3-(1-(5-chloro-4-fluoro-2-isopropoxy-3-(6-(trifluoromethyl)pyridin-3-yl)phenyl)ethyl)imidazo[1,5-a]pyrazin-8-amine] were, in that order, 0.0055 µM, more than 50 µM, more than 50 µM and more than 50 µM.
For `COc1c(C(C)c2nc(Br)c3c(N)nccn23)cc(Cl)c(C)c1-c1ccc(Cl)nc1` (stereo not shown) [Compound 22, 1-bromo-3-(1-(5-chloro-3-(6-chloropyridin-3-yl)-2-methoxy-4-methylphenyl)ethyl) imidazo[1,5-a]pyrazin-8-amine], the concentration for half-maximal inhibition (IC50) in assay [1] came to 0.0015 µM; in assay [2], 1.4 µM; at PI3K (p110β/p85α), 0.39 µM; at PI3K (p110γ), 0.76 µM.
On to `COc1cc(C(C)n2cc(Br)c3c(N)ncnc32)n(-c2ccccc2)c(=O)c1C#N` (stereo not shown) [Compound 57, 6-(1-(4-amino-5-bromo-7H-pyrrolo[2,3-d]pyrimidin-7-yl)ethyl)-4-methoxy-2-oxo-1-phenyl-1,2-dihydropyridine-3-carbonitrile], for which the half-maximal inhibitory concentration (IC50) in assay [1] is 0.02 µM; in assay [2], 83 µM; on PI3K (p110β/p85α), 1.24 µM; at PI3K (p110γ), 1.9 µM.
The corresponding values for `Cc1nc(C(C)c2cc(Cl)c(F)c(-c3ccc(C#N)nc3)c2OC(C)C)n2ccnc(N)c12` (single isomer, unassigned) [Compound 59A, 5-(3-(1-(8-amino-1-methylimidazo[1,5-a]pyrazin-3-yl)ethyl)-5-chloro-6-fluoro-2-isopropoxyphenyl)picolinonitrile] are 0.0012 µM, 6.3 µM, 1.4 µM and 2.7 µM.
For `CCOc1c(C(C)c2nc(Br)c3c(N)nccn23)cc(Cl)c(C)c1-c1ccc(OCCOC)nc1` (stereo not shown) [Compound 30, 1-bromo-3-(1-(5-chloro-2-ethoxy-3-(6-(2-methoxyethoxy)pyridin-3-yl)-4-methylphenyl)ethyl)imidazo[1,5-a]pyrazin-8-amine], the half-maximal inhibitory concentration (IC50) in assay [1] is 0.0023 µM; in assay [2], 1.8 µM; on PI3K (p110β/p85α), 0.53 µM; at PI3K (p110γ), 0.45 µM.
On to `COc1c(C(C)c2nc(Br)c3c(N)nccn23)cc(Cl)c(C)c1-c1ccc(N2CCOCC2)nc1` (stereo not shown) [Compound 23, 1-bromo-3-(1-(5-chloro-2-methoxy-4-methyl-3-(6-morpholinopyridin-3-yl)phenyl)ethyl)imidazo[1,5-a]pyrazin-8-amine], for which, in assay [1], the IC50 was determined as 0.015 µM. Moreover, the results for the inhibition at 0.5 µM (in assay [2] (read-out: PI3Kα max inhibition (%) at 0.5 μM); on PI3K (p110β/p85α) (read-out: PI3Kβ max inhibition (%) at 0.5 μM); on PI3K (p110γ) (read-out: PI3Kγ max inhibition (%) at 0.5 μM)) were 16%, 12% and -19%, respectively.
`CCOc1c(C(C)c2nc(Cl)c3c(N)nccn23)cc(Cl)c(C)c1-c1ccc(C(F)(F)F)nc1` (stereo not shown) [Compound 25, 1-chloro-3-(1-(5-chloro-2-ethoxy-4-methyl-3-(6-(trifluoromethyl)pyridin-3-yl)phenyl)ethyl)imidazo[1,5-a]pyrazin-8-amine]: the concentration for half-maximal inhibition (IC50) is 0.0026 µM in assay [1], 3 µM in assay [2], 2.6 µM on PI3K (p110β/p85α) and 1.4 µM at PI3K (p110γ).
Take `CCOc1c(C(C)c2nc(Cl)c3c(N)nccn23)cc(Cl)c(F)c1C1CCOCC1` (single isomer, unassigned) [Compound 49A, 1-chloro-3-(1-(5-chloro-2-ethoxy-4-fluoro-3-(tetrahydro-2H-pyran-4-yl)phenyl)ethyl)imidazo[1,5-a]pyrazin-8-amine]: the half-inhibitory concentration (IC50) in assay [1] amounted to 0.00049 µM; in assay [2], 2.1 µM; at PI3K (p110β/p85α), 0.26 µM; on PI3K (p110γ), 0.44 µM.
As to `CC(C)Oc1c(C(C)c2nc(Cl)c3c(N)nccn23)cc(F)c(Cl)c1-c1ccc(C(F)(F)F)nc1` (stereo not shown) [Compound 35, 1-chloro-3-(1-(4-chloro-5-fluoro-2-isopropoxy-3-(6-(trifluoromethyl)pyridin-3-yl)phenyl)ethyl)imidazo[1,5-a]pyrazin-8-amine], the half-maximal inhibitory concentration (IC50) in assay [1] stood at 0.011 µM; in assay [2] it was 23 µM; on PI3K (p110β/p85α), 79 µM; at PI3K (p110γ) it was 5.9 µM.
The corresponding values for `CCOc1c(C(C)c2nc(Br)c3c(N)nccn23)cc(Cl)c(C)c1-c1cncc(C(F)(F)F)c1` (stereo not shown) [Compound 39, 1-bromo-3-(1-(5-chloro-2-ethoxy-4-methyl-3-(5-(trifluoromethyl)pyridin-3-yl)phenyl)ethyl)imidazo[1,5-a]pyrazin-8-amine] are 0.0057 µM, 3.2 µM, 2 µM and 1.6 µM.
The corresponding values for `CCOc1c(C(C)c2nc(Br)c3c(N)nccn23)cc(Cl)c(C)c1-c1ccc(C(F)(F)F)nc1` (stereo not shown) [Compound 24, 1-bromo-3-(1-(5-chloro-2-ethoxy-4-methyl-3-(6-(trifluoromethyl)pyridin-3-yl)phenyl)ethyl)imidazo[1,5-a]pyrazin-8-amine] are 0.0029 µM, 4 µM, 1.6 µM and 2.1 µM.
For the molecule `CCOc1c([C@H](C)c2nc(Cl)c3c(N)nccn23)cc(Cl)c(F)c1-c1ccc(C(F)(F)F)nc1OC` [Compound 43A], the IC50 in assay [1] is 0.028 µM; in assay [2], more than 50 µM; at PI3K (p110β/p85α), more than 50 µM; on PI3K (p110γ) it was more than 50 µM.
As to `Cc1nc([C@@H](C)c2cc(Cl)c(F)c(-c3ccc(C(=O)N4CCC(O)CC4)nc3)c2OC(C)C)n2ccnc(N)c12` [Compound 61, (S)-(5-(3-(1-(8-amino-1-methylimidazo[1,5-a]pyrazin-3-yl)ethyl)-5-chloro-6-fluoro-2-isopropoxyphenyl)pyridin-2-yl)(4-hydroxypiperidin-1-yl)methanone], the IC50 in assay [1] turned out to be 0.00058 µM; in assay [2], 2.9 µM; on PI3K (p110β/p85α), 6.1 µM; at PI3K (p110γ) it was 3.8 µM.
The corresponding values for `CCOc1c(C(C)c2nc(Cl)c3c(N)nccn23)cc(Cl)c(C)c1C1CNC(=O)C1` (stereo not shown) [Compound 46, 4-(3-(1-(8-amino-1-chloroimidazo[1,5-a]pyrazin-3-yl)ethyl)-5-chloro-2-ethoxy-6-methylphenyl)pyrrolidin-2-one] are 0.0007 µM, 5.6 µM, 0.47 µM and 0.92 µM.
For `CC(C)Oc1c(C(C)c2nc(Cl)c3c(N)nccn23)cc(Cl)c(F)c1-c1ccc(C(N)=O)nc1` (stereo not shown) [Compound 17, 5-(3-(1-(8-amino-1-chloroimidazo[1,5-a]pyrazin-3-yl)ethyl)-5-chloro-6-fluoro-2-isopropoxyphenyl)picolinamide], the IC50 in assay [1] worked out at 0.0015 µM; in assay [2], 3.1 µM; at PI3K (p110β/p85α), 1.6 µM; on PI3K (p110γ) it was 1.9 µM.
The like results for `Cc1c(Cl)cc([C@H](C)c2nc(Br)c3c(N)nccn23)c(OC(C)C)c1-c1ccc(C(F)(F)F)nc1` [Compound 38A] were, in that order, 0.0054 µM, more than 200 µM, 28 µM and 0.74 µM.
As to `CCCOc1c(C(C)c2nc(Cl)c3c(N)nccn23)cc(Cl)c(F)c1-c1ccc(C(F)(F)F)nc1` (stereo not shown) [Compound 42, 1-chloro-3-(1-(5-chloro-4-fluoro-2-propoxy-3-(6-(trifluoromethyl)pyridin-3-yl)phenyl)ethyl)imidazo[1,5-a]pyrazin-8-amine], the half-maximal inhibitory concentration (IC50) in assay [1] was 0.0074 µM; in assay [2], more than 50 µM; at PI3K (p110β/p85α), more than 50 µM; at PI3K (p110γ), 1.6 µM.
Regarding `COc1ccc(-c2c(C)c(Cl)cc(C(C)c3nc(Br)c4c(N)nccn34)c2OC)cn1` (stereo not shown) [Compound 20, 1-bromo-3-(1-(5-chloro-2-methoxy-3-(6-methoxypyridin-3-yl)-4-methylphenyl)ethyl)imidazo[1,5-a]pyrazin-8-amine], the 50% inhibitory concentration (IC50) stood at 0.0032 µM in assay [1], 2.3 µM in assay [2], 0.93 µM at PI3K (p110β/p85α) and 0.74 µM on PI3K (p110γ).
The like results for `CCOc1c([C@H](C)c2nc(Cl)c3c(N)nccn23)cc(Cl)c(C)c1-c1ccc(Cl)nc1` [Compound 27A] were, in that order, 0.0011 µM, 2.2 µM, 0.4 µM and 1 µM.
The like results for `CCOc1c(C(C)c2nc(Cl)c3c(N)nccn23)cc(Cl)c(C)c1N1CCOCC1` (single isomer, unassigned) [Compound 51A, 1-chloro-3-(1-(5-chloro-2-ethoxy-4-methyl-3-morpholinophenyl)ethyl)imidazo[1,5-a]pyrazin-8-amine] were, in that order, 0.00079 µM, 2.1 µM, 0.48 µM and 1.2 µM.
As for `CCOc1c(C(C)c2nc(Cl)c3c(N)nccn23)cc(Cl)c(F)c1-c1ccc(C(F)(F)F)nc1OC` (stereo not shown) [Compound 43, 1-chloro-3-(1-(5-chloro-2-ethoxy-4-fluoro-3-(2-methoxy-6-(trifluoromethyl)pyridin-3-yl)phenyl)ethyl)imidazo[1,5-al]pyrazin-8-amine], the IC50 in assay [1] is 0.059 µM; in assay [2] it was more than 50 µM; on PI3K (p110β/p85α), more than 50 µM; at PI3K (p110γ), more than 50 µM.
